From US9051290B2, “Biaryl phosphodiesterase inhibitors” (LEO PHARMA A/S, priority 2010, dated 2015)

Target: Human recombinant PDE4 (Genbank accession no NM—006203) (Homo sapiens, UniProt Q08499)
Experiment: PDE4 assay (SPA, cleavage of cAMP)
Format: biochemical
Conditions: 1 hour incubation, test compound up to 10 μM, cAMP 1×10^−5M, read-out: PDE4 IC50 range
Procedure, shortened: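 Human recombinant PDE4 incubated 1 hour with compound (up to 10 μM), 1×10^−5M cAMP and radiolabelled cAMP tracer. AMP product detected by SPA bead binding; IC50 taken as concentration giving 50% inhibition of substrate cleavage versus controls, reported as ranges.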

Sequence of Human recombinant PDE4 (Genbank accession no NM—006203) (Q08499 1-673 isoform Q08499-2): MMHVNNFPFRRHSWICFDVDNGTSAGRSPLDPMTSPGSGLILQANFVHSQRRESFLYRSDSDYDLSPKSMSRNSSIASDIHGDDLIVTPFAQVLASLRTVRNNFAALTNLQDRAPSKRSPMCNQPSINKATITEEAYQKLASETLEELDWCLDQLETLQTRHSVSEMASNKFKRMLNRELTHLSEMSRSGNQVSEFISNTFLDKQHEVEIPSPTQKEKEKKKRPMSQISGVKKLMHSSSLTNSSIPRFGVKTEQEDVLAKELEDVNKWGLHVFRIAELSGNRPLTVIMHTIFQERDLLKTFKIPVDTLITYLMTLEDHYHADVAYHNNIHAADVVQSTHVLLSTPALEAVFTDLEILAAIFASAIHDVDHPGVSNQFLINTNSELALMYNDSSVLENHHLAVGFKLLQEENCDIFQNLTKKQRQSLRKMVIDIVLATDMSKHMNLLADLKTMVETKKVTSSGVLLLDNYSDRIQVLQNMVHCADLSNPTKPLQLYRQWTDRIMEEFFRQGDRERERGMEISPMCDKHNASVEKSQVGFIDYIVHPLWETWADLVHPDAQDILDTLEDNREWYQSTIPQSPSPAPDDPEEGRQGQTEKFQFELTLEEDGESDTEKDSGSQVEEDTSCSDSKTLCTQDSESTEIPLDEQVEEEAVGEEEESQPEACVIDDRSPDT

IC50, < 0.1 µM:
COCC(C)(C)COc1c(-c2cccc3c2CCC3=O)ccc(OC)c1OC [Compound 217, 4-[3,4-Dimethoxy-2-(3-methoxy-2,2-dimethyl-propoxy)-phenyl]-indan-1-one]
COCC(C)(C)COc1c(-c2ccc3c(c2)COC3=O)ccc(OC)c1OC [Compound 218, 5-[3,4-Dimethoxy-2-(3-methoxy-2,2-dimethyl-propoxy)-phenyl]-3H-isobenzofuran-1-one]
COCC(C)(C)COc1c(-c2ccc3c(c2)CNC3=O)ccc(OC)c1OC [Compound 219, 5-[3,4-Dimethoxy-2-(3-methoxy-2,2-dimethyl-propoxy)-phenyl]-2,3-dihydro-isoindol-1-one]
